Assay results from ChEMBL document CHEMBL3864190, “Discovery of Pyrazolopyrimidine Derivatives as Novel Dual Inhibitors of BTK and PI3Kδ” (ACS Med Chem Lett, 2016).
Blank lines part the entries; values can stand above or below the compound they belong to.

Assays:
[1] = molecular target: T1, Phosphatidylinositol 4,5-bisphosphate 3-kinase catalytic subunit delta isoform (Homo sapiens) (UniProt O00329); test: Inhibition of PI3Kdelta (unknown origin) using biotinylated PIP2 as substrate at 100 nM in presence of streptavidin-APC by FRET assay
T1 sequence (whole entry): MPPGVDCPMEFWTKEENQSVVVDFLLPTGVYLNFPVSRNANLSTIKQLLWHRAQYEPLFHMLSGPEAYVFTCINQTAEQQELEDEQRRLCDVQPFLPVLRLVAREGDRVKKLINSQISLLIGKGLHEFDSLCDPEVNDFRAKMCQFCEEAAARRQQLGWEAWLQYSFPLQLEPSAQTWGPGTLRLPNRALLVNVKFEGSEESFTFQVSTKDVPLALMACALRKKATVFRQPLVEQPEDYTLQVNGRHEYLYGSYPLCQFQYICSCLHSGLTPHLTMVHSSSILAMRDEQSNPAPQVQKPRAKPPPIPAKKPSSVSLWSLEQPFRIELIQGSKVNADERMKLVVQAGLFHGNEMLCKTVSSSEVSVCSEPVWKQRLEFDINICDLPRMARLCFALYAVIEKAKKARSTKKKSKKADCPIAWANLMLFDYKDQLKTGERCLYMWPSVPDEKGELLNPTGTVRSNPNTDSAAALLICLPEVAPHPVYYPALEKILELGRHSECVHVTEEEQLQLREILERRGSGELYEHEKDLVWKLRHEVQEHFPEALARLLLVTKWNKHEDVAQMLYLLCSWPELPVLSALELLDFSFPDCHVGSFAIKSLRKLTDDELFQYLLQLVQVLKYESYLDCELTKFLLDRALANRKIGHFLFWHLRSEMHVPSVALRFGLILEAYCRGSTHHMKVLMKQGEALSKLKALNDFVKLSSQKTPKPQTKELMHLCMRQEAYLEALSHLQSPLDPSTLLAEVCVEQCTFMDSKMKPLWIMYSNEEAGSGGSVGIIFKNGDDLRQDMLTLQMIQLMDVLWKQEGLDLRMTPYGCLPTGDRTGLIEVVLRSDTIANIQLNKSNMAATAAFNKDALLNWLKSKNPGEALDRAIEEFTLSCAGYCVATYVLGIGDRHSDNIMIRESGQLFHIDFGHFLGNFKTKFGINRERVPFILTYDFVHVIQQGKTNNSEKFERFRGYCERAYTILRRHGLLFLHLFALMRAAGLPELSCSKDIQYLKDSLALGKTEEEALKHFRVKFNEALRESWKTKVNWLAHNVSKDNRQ

[2] = Drug metabolism in mouse liver microsomes assessed as UGT-mediated compound glucuronidation by measuring parent compound remaining at 5 uM after 30 mins in presence of UDPGA by LC-MS/MS analysis; type: ADME; settings: liver microsomes, read-out: Stability
[3] = molecular target: T2, Tyrosine-protein kinase BTK (Homo sapiens, UniProt Q06187); settings: at 100 nM
T2 sequence (Q06187 whole entry): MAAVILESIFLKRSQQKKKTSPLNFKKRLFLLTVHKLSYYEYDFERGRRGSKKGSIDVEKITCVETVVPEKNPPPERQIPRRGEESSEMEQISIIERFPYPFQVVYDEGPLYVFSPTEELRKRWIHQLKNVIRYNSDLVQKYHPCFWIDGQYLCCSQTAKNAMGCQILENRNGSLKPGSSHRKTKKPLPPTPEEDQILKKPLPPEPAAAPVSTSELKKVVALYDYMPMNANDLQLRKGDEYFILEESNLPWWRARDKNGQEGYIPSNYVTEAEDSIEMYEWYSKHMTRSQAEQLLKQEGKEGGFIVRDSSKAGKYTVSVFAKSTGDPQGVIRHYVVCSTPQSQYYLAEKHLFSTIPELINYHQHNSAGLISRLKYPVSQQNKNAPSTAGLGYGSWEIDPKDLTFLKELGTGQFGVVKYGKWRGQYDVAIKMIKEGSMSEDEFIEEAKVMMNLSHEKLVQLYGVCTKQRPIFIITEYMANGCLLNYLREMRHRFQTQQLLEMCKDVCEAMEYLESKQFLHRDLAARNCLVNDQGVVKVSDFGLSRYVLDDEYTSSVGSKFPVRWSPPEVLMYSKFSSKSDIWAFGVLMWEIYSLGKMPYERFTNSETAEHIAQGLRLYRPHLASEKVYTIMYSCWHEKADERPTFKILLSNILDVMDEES

Homo sapiens [4] = organism: Homo sapiens; test: Selectivity ratio of IC50 for PI3Kalpha (unknown origin) to IC50 for PI3Kdelta (unknown origin)
Homo sapiens [5] = organism: Homo sapiens; test: Selectivity ratio of IC50 for PI3Kbeta (unknown origin) to IC50 for PI3Kdelta (unknown origin)
Homo sapiens [6] = organism: Homo sapiens; test: Selectivity ratio of IC50 for PI3Kgamma (unknown origin) to IC50 for PI3Kdelta (unknown origin)
Homo sapiens [7] = organism: Homo sapiens; test: Selectivity ratio of IC50 for human BMX to IC50 for human BTK
Homo sapiens [8] = organism: Homo sapiens; test: Selectivity ratio of IC50 for human TEC to IC50 for human BTK
[9] = molecular target: T2, Tyrosine-protein kinase BTK
[10] = molecular target: T3, Phosphatidylinositol 4,5-bisphosphate 3-kinase catalytic subunit delta isoform (Homo sapiens, UniProt O00329); test: Inhibition of PI3Kdelta (unknown origin) using biotinylated PIP2 as substrate in presence of streptavidin-APC by FRET assay
T3 sequence (O00329 whole entry): T1 sequence (whole entry)

[11] = Drug metabolism in mouse liver microsomes assessed as compound oxidation by measuring parent compound remaining at 1 uM after 30 mins in presence of NADPH by LC-MS/MS analysis; type: ADME
[12] = Drug metabolism in human liver microsomes assessed as compound oxidation by measuring parent compound remaining at 1 uM after 30 mins in presence of NADPH by LC-MS/MS analysis; type: ADME; settings: liver microsomes, read-out: Stability
[13] = Drug metabolism in human liver microsomes assessed as UGT-mediated compound glucuronidation by measuring parent compound remaining at 5 uM after 30 mins in presence of UDPGA by LC-MS/MS analysis; type: ADME; settings: read-out: Stability
[14] = Drug metabolism in rat liver microsomes assessed as compound oxidation by measuring parent compound remaining at 1 uM after 30 mins in presence of NADPH by LC-MS/MS analysis; type: ADME; settings: liver microsomes, read-out: Stability
[15] = Drug metabolism in dog liver microsomes assessed as compound oxidation by measuring parent compound remaining at 1 uM after 30 mins in presence of NADPH by LC-MS/MS analysis; type: ADME, Canis lupus familiaris; settings: 0.5 h
[16] = Efflux ratio of apparent permeability from basolateral to apical side over apical to basolateral side in human Caco2 cells; type: ADME, cell-based; settings: caco-2
[17] = Protein binding in mouse plasma; type: ADME, cell-free; settings: read-out: PPB (converted)
[18] = Clearance in mouse plasma at 2 mg/kg, iv or 10 mg/kg, po by HPLC/MS analysis; type: ADME, organism-based; settings: in vivo
[19] = Apparent volume of distribution in mouse plasma at 2 mg/kg, iv or 10 mg/kg, po by HPLC/MS analysis; type: ADME, organism-based; settings: in vivo
[20] = AUC in mouse plasma at 10 mg/kg, po by HPLC/MS analysis; type: ADME, organism-based; settings: plasma, read-out: AUC
[21] = Half life in mouse plasma at 10 mg/kg, po by HPLC/MS analysis; type: ADME, organism-based; settings: plasma
[22] = Oral bioavailability in mouse plasma at 10 mg/kg by HPLC/MS analysis; type: ADME, organism-based; settings: plasma
[23] = Clearance in mouse plasma at 1 mg/kg, iv or 5 mg/kg, po by HPLC/MS analysis; type: ADME, organism-based
[24] = Apparent volume of distribution in mouse plasma at 1 mg/kg, iv or 5 mg/kg, po by HPLC/MS analysis; type: ADME, organism-based; settings: read-out: Vz
[25] = AUC in mouse plasma at 5 mg/kg, po by HPLC/MS analysis; type: ADME, organism-based
[26] = Half life in mouse plasma at 5 mg/kg, po by HPLC/MS analysis; type: ADME, organism-based
[27] = Oral bioavailability in mouse plasma at 5 mg/kg by HPLC/MS analysis; type: ADME, organism-based

SMILES: Nc1ccc2c(c1)CC(n1nc(-c3cc(F)c4c(c3)NCCO4)c3c(N)ncnc31)C2 (single isomer, unassigned; (-))
- Ratio IC50 (Homo sapiens [4]): 17
- Ratio IC50 (Homo sapiens [5]): 44
- Ratio IC50 (Homo sapiens [6]): 7
- Ratio IC50 (Homo sapiens [7]): 1
- Ratio IC50 (Homo sapiens [8]): 7

SMILES: Nc1ncnc2c1c(-c1ccc3c(c1)NCCO3)nn2C1Cc2ccccc2C1
- inhibition [1]: 40%
- remaining at 0.5 h, 5 µM [2]: 98%
- inhibition [3]: 57%

SMILES: Nc1ncnc2c1c(-c1ccc(Cl)c(O)c1)nn2C1Cc2ccccc2C1
- IC50 [9]: 14 nM

SMILES: Nc1ccc2c(c1)CC(n1nc(-c3cc(F)c4c(c3)NCCO4)c3c(N)ncnc31)C2 (stereo in doubt; (+)-32) [listing 1 of 2 here]
- IC50 [10]: 47 nM
- Stability ([11]; microsomes, 0.5 h, 1 µM): 28%
- remaining at 0.5 h, 5 µM [2]: 93%
- remaining at 0.5 h, 1 µM [12]: 71%
- remaining at 0.5 h, 5 µM [13]: 91%
- remaining at 0.5 h, 1 µM [14]: 45%
- Stability [15]: 65%
- efflux ratio [16]: 1.3
- fraction unbound [17]: 0.02
- CL [18]: 24.3 mL/min/kg
- Vz [19]: 0.58 L/kg
- AUC [20]: 9.28 µM·h
- half-life [21]: 1.2 h
- bioavailability [22]: 57%
- IC50 [9]: 24 nM

SMILES: Nc1ncnc2c1c(-c1cc(F)c3c(c1)NCCO3)nn2C1Cc2ccccc2C1
- inhibition [1]: 53%
- remaining at 0.5 h, 5 µM [2]: 91%
- inhibition [3]: 52%

SMILES: Nc1ccc2c(c1)CC(n1nc(-c3cc(F)c4c(c3)NCCO4)c3c(N)ncnc31)CC2 (single isomer, unassigned; (-))
- IC50 [10]: 72 nM
- IC50 [9]: 19 nM

SMILES: COc1ccc(-c2nn(C3Cc4ccccc4C3)c3ncnc(N)c23)cc1N
- inhibition [1]: 14%
- remaining at 0.5 h, 5 µM [2]: 89%
- inhibition [3]: 72%

SMILES: Nc1ncnc2c1c(-c1ccc3cc[nH]c3c1)nn2C1Cc2ccccc2C1
- inhibition [1]: 24%
- inhibition [3]: 46%

SMILES: Nc1ccc2c(c1)CC(n1nc(-c3cc(F)c4c(c3)NCCO4)c3c(N)ncnc31)C2 (stereo in doubt; (+)-32) [listing 2 of 2 here]
- Ratio IC50 (Homo sapiens [4]): 6
- Ratio IC50 (Homo sapiens [5]): 34
- Ratio IC50 (Homo sapiens [6]): 2
- Ratio IC50 (Homo sapiens [7]): 4
- Ratio IC50 (Homo sapiens [8]): 20

SMILES: Nc1ncnc2c1c(-c1ccc(Br)c(O)c1)nn2C1Cc2ccccc2C1
- clearance [23]: 63.7 mL/min/kg
- Vd [24]: 5.9 L/kg
- AUC [25]: 0.213 µM·h
- half-life [26]: 2.3 h
- bioavailability [27]: 6.9%
- remaining at 0.5 h, 1 µM ([11]; liver microsomes, read-out: Stability): 53%
- remaining at 0.5 h, 5 µM [2]: 13%
- remaining at 0.5 h, 1 µM [12]: 66%
- remaining at 0.5 h, 5 µM [13]: 5.2%

Further lines, results first:

- inhibition [1]: 26%
- remaining at 0.5 h, 5 µM [2]: 97%
- inhibition [3]: 63%
SMILES: Nc1cc(-c2nn(C3Cc4ccccc4C3)c3ncnc(N)c23)cc(F)c1F

- inhibition [1]: 78%
- inhibition [3]: 9.6%
SMILES: Nc1ncnc2c1c(-c1ccc3nc[nH]c3c1)nn2C1Cc2ccccc2C1

- IC50 [10]: 172 nM
- IC50 [9]: 43 nM
SMILES: Cc1ccc(-c2nn(C3Cc4ccccc4C3)c3ncnc(N)c23)cc1O

- IC50 [9]: > 10000 nM
SMILES: Cc1ccccc1-n1c(Cn2nc(-c3cc(O)cc(F)c3)c3c(N)ncnc32)nc2cccc(C)c2c1=O
